Source: patent US20190098891A1, “Compositions and Methods for Biopreservation” (Augusta University Research Institute, Inc., priority 2017, published 2019)

Tested on: mouse M II oocytes
Experiment: Post-rehydration survival of mouse M II oocytes after fast or slow desiccation
Format: cell-based
Text: A phosphate-buffered saline (PBS) containing 0.4% bovine serum albumin (BSA) was used as a starting desiccation medium based on its simple composition that was preferable to not complicate the experimental outcome due to components of a complex desiccation medium. Further, the objective of these experiments was to test the effect of the desiccation duration without bringing specimen into a glassy state.
Slow and fast desiccation are can be achieved by adjusting several variables (e.g., temperature and flow rate of dry nitrogen gas, temperature of stage warmer, droplet size, etc.). Slow and fast desiccation of M II oocytes were achieved by changing the flow rate of dry nitrogen gas using a flowmeter (Gilmont Instruments) while performing the experiments at ambient temperature.
The fast protocol required approximately 9 minutes to desiccate a sample to a residual moisture content of 5% while the same residual moisture content was obtained in ca. 20 minutes in the case of slow desiccation. […]
The residual moisture content (% RM) of samples was determined gravimetrically using the following formula: […]

Compound: OC[C@H]1O[C@H](O[C@H]2O[C@H](CO)[C@@H](O)[C@H](O)[C@H]2O)[C@H](O)[C@@H](O)[C@@H]1O [trehalose]
- desiccation tolerance: improves the desiccation tolerance
